US11679107B2 (Eisai R&D Management Co., Ltd., priority 2018, dated 2023)
Where two headings read alike, the source gives them in different places.

Legend:
SF3b complexes = target: T1, SF3b complexes (Homo sapiens, UniProt O75533+Q7RTV0); experiment: Scintillation proximity assay (SPA) with [3H]-labelled pladienolide probe; type: binding; conditions: SF3B1 (WT); geometric mean; read-out: SPA-ATS GMean IC50 (nM) SF3B1 (WT)
T1 construct: endogenous in cells; host or cells: Nuclear extracts; A HeLa S3 extract preparation is described for the in vitro splicing assay
Method: Scintillation Proximity Assay (SPA) with [^3-H]-Labelled Pladienolide Probe
(§1) Batch immobilization of anti-SF3B1 antibody (MBL) to anti-mouse PVT SPA scintillation beads (PerkinElmer) was prepared as follows: for every 2.5 mg of nuclear extracts, 5 μg anti-SF3B1 antibody and 1.5 mg of beads were mixed in 150 μl PBS. The antibody-bead mixture was incubated for 30 min at RT and centrifuged at 18,000 g for 5 min. 150 μl PBS was used to resuspend every 1.5 mg antibody-bead mixture. The beads were suspended and added to the prepared nuclear extracts. The slurry was incubated for 2 h at 4° C. with gentle mixing. The beads were then collected by centrifuging at 18,000 g for 5 min, and washed twice with PBS+0.1% Triton X-100. After a final centrifugation step, every 1.5 mg of beads was suspended with 150 μl of PBS. The SF3b complexes were tested for [^3H]-labelled pladienolide probe binding ([^3H]—PB), synthesized as previously described (Kotake et al., 2007). 100 μl binding reactions were prepared with 50 μl bead slurry and by adding varying concentrations of PB or PB—OH, and after 30 min pre-incubation, 2.5 nM [^3H]—PB was added. The mixture was incubated for 30 min, and luminescence signals were read using a MicroBeta2 Plate Counter (PerkinElmer). Prism 6 (Graphpad) was used for non-linear regression curve fitting of the data. • a. • b. HeLa nuclear extract preparation (for in vitro splicing modulation assay below) • c. HeLa S3 cell pellets were resuspended in hypotonic buffer (10 mM HEPES pH 7.9, 1.5 mM MgCl2, 10 mM KCl, 0.2 mM PMSF, and 0.5 mM DTT) and the suspension was brought up to a total of 5 packed cell volume (PCV). After centrifugation, the supernatant was discarded, and the cells were brought up to 3 PCV with hypotonic buffer and incubated on ice for 10 minutes. Cells were lysed using a dounce homogenizer and then centrifuged. The supernatant was discarded, and the pellet was resuspended with ½ packed nuclear volume (PNV) of low salt buffer (20 mM HEPES pH 7.9, 1.5 mM MgCl2, 20 mM KCl, 0.2 mM EDTA, 25% glycerol, 0.2 mM PMSF, 0.5 mM DTT), followed by ½ PNV of high salt buffer (same as low salt buffer except 1.4 M KCl was used). The nuclei were gently mixed for 30 minutes before centrifuging. The supernatant (nuclear extract) was then dialyzed into storage buffer (20 mM HEPES pH 7.9, 100 mM KCl, 0.2 mM EDTA, 20% glycerol, 0.2 mM PMSF, 0.5 mM DTT). Protein concentration was determined using NanoDrop 8000 UV-Vis spectrophotometer (ThermoFisher Scientific). • d. In vitro splicing assay (IVS)

[1] = tested on: Ad2 variant pre-mRNAs spliced in HeLa S3 nuclear extracts; experiment: In vitro splicing assay (IVS), RT-qPCR of spliced product; type: biochemical; conditions: for IC50: geometric mean; for Ratio Ad2.1/2.2: ratio of IVS IC50 Ad2.1 to Ad2.2
Method: as §1
All Ad2-derived (Pellizzoni et al., 1998) sequences were cloned into pcDNA3.1(+) vector (Promega) using 5′ EcoRI and 3′ XbaI restriction sites. The plasmids were linearized using XbaI and used as DNA templates in the in vitro transcription reactions. The FtzΔi intron-less plasmid (Luo and Reed, 1999) was linearized using EcoRI. All RNAs were in vitro transcribed and then purified using MEGAScript T7 (Invitrogen) and MegaClear (Invitrogen) kits, respectively. For splicing reactions using Ad2 variant pre-mRNAs, […] reactions were prepared using 8 μg nuclear extracts prepared from HeLa S3, 2 ng pre-mRNA, 0.2 ng FTZΔi, and varying concentrations of exemplary payloads or DMSO. After a 15 minute pre-incubation at 30° C., 1 μL splicing activation buffer (0.5 mM ATP, 20 mM creatine phosphate, 1.6 mM MgCl2) was added, and the reactions were incubated for 90 minutes at 30° C. The reactions were then quenched with 13 μL it DMSO, and 25 nL was used for RT-qPCR. RT-qPCR reactions were prepared using TaqMan RNA-to-CT 1-step kit (Life Technologies), RNA from splicing reactions, Ad2 (forward: […]; reverse: […]; probe: […]) and Ftz (forward: […]; reverse: […]; probe: […]) mRNA primer-probe sets. Prism 6 (Graphpad) was used for non-linear regression curve fitting of the formed spliced product and normalized to the control (DMSO) sample.

[2] = tested on: NCI-H1568 cells (high MCL1); experiment: Cell proliferation and viability, CellTiter-Glo, 72 hours; type: cell-based; conditions: for GI50: geometric mean
Method: Cell lines were maintained in RPMI-1640 (ATCC 30-2001) supplemented with 10% fetal bovine serum (FBS). The Panc lines were supplemented in addition with insulin and FBS up to 15% total.
Compounds for assay were prepared as stocks in 90% dimethyl sulfoxide (DMSO), assessed for purity by LC/MS, and serially diluted in DMSO using a low-volume liquid handler (VIAFLO ASSIST and VIAFLO II electronic 16-channel pipette, 0.5-12.5 μL) in an 11-point half-log serial dilution to create a master dose response (MDR) source used for all tests.
Transfer of compounds from the MDR source plate to cell assay-ready plates were accomplished directly by low-energy acoustic transfer (ATS100, EDC Biosystems). After transfer of compounds to the assay plate, the dose-response range experienced by cells was typically 10 μM-100 pM (5 logs), and final DMSO concentration in the assay was 0.1%, uniformly. Each assay plate was self-anchored containing vehicle/DMSO negative controls, medium-only/positive controls, and cidal control dose-responses of bortezomib and staurosporine. Assay-ready plates were heat-sealed and stored at −20° C. until used, no longer than one month.
A DMSO-matched time zero (T0) plate was read and then all other plates were incubated at 37° C. with 5% CO2 and 95% relative humidity until the end of assay. Cell proliferation and viability assays were performed 72 hours post-treatment depending on cell growth where at least one doubling would have occurred.
Assessment of viability and proliferation was by measurement of cell ATP content using CellTiter-Glo® Luminescent Cell Viability Assay reagent (Promega) according to the manufacturer's instructions (CellTiter-Glo® Luminescent Cell Viability Assay Technical Bulletin Instructions for Use of Product(s) G7570, G7571, G7572, G7573 Literature #TB288, Revised March 2015), using a microtiter plate reader (Envision, PE).
Cell proliferation was evaluated using the time zero (T0) signal as the positive control and the within-plate vehicle wells (DMSO) as the negative control. Data was converted to percent inhibition and falls into the range from −100% to 100% of growth where −100% equals a cidal response and 100% equals uninhibited or maximal growth. Cell growth at or near 0% is considered a static response.

[3] = Ad2.1 pre-mRNA substrate, read-out: qPCR-IVS-ATS GMean IC50 (nM) Ad2.1
[4] = Ad2.2 pre-mRNA substrate, read-out: qPCR-IVS-ATS GMean IC50 (nM) Ad2.2
[5] = 72 h, NCIH1568.1, -100% = cidal, 0% = static, 100% = uninhibited growth
[6] = NCI-H1568, read-out: CTGlo-ATS GMean GI50 (nM) 72 h NCIH1568.1, 72 h, NCIH1568.1
[7] = NCI-H1568, 72 h, read-out: CTGlo-ATS GMean GI50 (nM) 72 h NCIH1568.1, 72 h, NCIH1568.1
[8] = NCI-H1568, 72 h, read-out: CTGlo-ATS GMean GI50 (nM) 72 h NCIH1568.1, NCIH1568.1 cells, 72 h
[9] = NCIH1568.1 cells, 72 h, −100% cidal, 0% static, 100% maximal growth
[10] = NCI-H1568, read-out: CTGlo-ATS GMean GI50 (nM) 72 h NCIH1568.1, NCIH1568.1 cells, 72 h

Row | SMILES | IC50 (SF3b complexes) | IC50 [1, 3] | IC50 [1, 4] | Ratio Ad2.1/2.2 [1] | CTGlo-ATS Mean MinResponse % 72 h NCIH1568.1 [2, 5] | GI50 [2, 6] | GI50 [2, 7] | GI50 [2, 8] | CTGlo-ATS Mean MinResponse % 72 h NCIH1568.1 [2, 9] | GI50 [2, 10]
1 | COCC(=O)N[C@H]1CCN(c2cc(F)cc(/C=C(\C)[C@H]3OC(=O)CC(O)CCC(C)[C@@H](OC(=O)N4CCN(C)CC4)/C=C/[C@@H]3C)c2)C1 (stereo in doubt) [Compound 218, [(2S,3S,4E,6R,7R,10S)-2-[(E)-1-[3-fluoro-5-[(3S)-3-[(2-methoxyacetyl)amino]pyrrolidin-1-yl]phenyl]prop-1-en-2-yl]-10-hydroxy-3,7-dimethyl-12-oxo-1-oxacyclododec-4-en-6-yl] 4-methylpiperazine-1-carboxylate] | 2.79 nM | 30.5 nM | 5.62 nM | 5.425 | −75.420% | 6.2 nM | – | – | – | –
2 | COc1ccc(CNC(=O)O[C@H]2/C=C/C(C)C(/C(C)=C/c3cc(F)cc(N4CCN(C(=O)Cn5cccn5)CC4)c3)OC(=O)CC(O)CC[C@@H]2C)cc1 (stereo in doubt) [Compound 226, [(2R,3R,4E,6R,7S,10S)-2-[(E)-1-[3-fluoro-5-[4-(2-pyrazol-1-ylacetyl)piperazin-1-yl]phenyl]prop-1-en-2-yl]-10-hydroxy-3,7-dimethyl-12-oxo-1-oxacyclododec-4-en-6-yl] N-[(4-methoxyphenyl)methyl]carbamate] | 1.17 nM | 8.74 nM | 102 nM | 0.086 | −64.963% | 34.7 nM | – | – | – | –
3 | C/C(=C\c1cc(F)cc(N2CCN(C(=O)Cn3cccn3)CC2)c1)C1OC(=O)CC(O)CC[C@H](C)[C@@H](OC(=O)NC(C)CO)/C=C/C1C (stereo in doubt) [Compound 229, [(2R,3R,4E,6R,7S,10S)-2-[(E)-1-[3-fluoro-5-[4-(2-pyrazol-1-ylacetyl)piperazin-1-yl]phenyl]prop-1-en-2-yl]-10-hydroxy-3,7-dimethyl-12-oxo-1-oxacyclododec-4-en-6-yl] N-[(2S)-1-hydroxypropan-2-yl]carbamate] | 17.1 nM | 329 nM | 12.2 nM | 27.000 | −65.653% | – | 13.4 nM | – | – | –
4 | C/C(=C\c1cc(F)cc(N2CCCNC2=O)c1)[C@H]1OC(=O)C[C@H](O)CC[C@H](C)[C@@H](OC(=O)N2CCN(C)CC2)/C=C/[C@@H]1C [Compound 79] | 2.14 nM | 18 nM | 12.3 nM | – | – | – | – | 4.01 nM | −72.802% | –
5 | C/C(=C\c1cc(F)cc(N2CCCN(CC3CC3)C2=O)c1)[C@H]1OC(=O)C[C@H](O)CC[C@H](C)[C@@H](OC(=O)N2CCN(C)CC2)/C=C/[C@@H]1C [Compound 80] | 1.59 nM | 6.64 nM | 8.57 nM | – | – | – | – | 2.68 nM | −69.196% | –
6 | C/C(=C\c1cc(F)cc(N2CCN(C(=O)[C@@H](C)O)CC2)c1)[C@H]1OC(=O)C[C@H](O)CC[C@H](C)[C@@H](OC(=O)N2CCN(C)CC2)/C=C/[C@@H]1C [Compound 81] | 2.59 nM | 9.07 nM | 4.95 nM | – | – | – | – | – | −83.963% | 2.18 nM
7 | C/C(=C\c1cc(F)cc(N2CCN(CCCO)CC2)c1)[C@H]1OC(=O)C[C@H](O)CC[C@H](C)[C@@H](OC(=O)N2CCN(C)CC2)/C=C/[C@@H]1C [Compound 136] | 8.11 nM | 8.64 nM | 14.5 nM | – | – | – | – | 7.17 nM | −90.722% | –
8 | COCCn1cnc2c(F)cc(/C=C(\C)[C@H]3OC(=O)C[C@H](O)CC[C@H](C)[C@@H](OC(=O)N4CCN(C)CC4)/C=C/[C@@H]3C)cc21 [Compound 142] | 1.35 nM | 12.9 nM | 6.99 nM | – | – | – | – | – | −69.213% | 2.19 nM
9 | C/C(=C\c1cc(F)c2nnn(C3CCN(C(=O)OC(C)(C)C)CC3)c2c1)[C@H]1OC(=O)C[C@H](O)CC[C@H](C)[C@@H](OC(=O)N2CCN(C)CC2)/C=C/[C@@H]1C [Compound 144] | 12.9 nM | 23 nM | 17.8 nM | – | – | – | – | – | −95.432% | 4.12 nM
10 | C/C(=C\c1cc(F)cc(N2CCN(C(=O)Cn3cccn3)CC2)c1)[C@H]1OC(=O)C[C@H](O)CC[C@H](C)[C@@H](OC(=O)N2CC[C@H](N(C)C)C2)/C=C/[C@@H]1C [Compound 228, [(2S,3S,4E,6R,7S,10R)-2-[(E)-1-[3-fluoro-5-[4-(2-pyrazol-1-ylacetyl)piperazin-1-yl]phenyl]prop-1-en-2-yl]-10-hydroxy-3,7-dimethyl-12-oxo-1-oxacyclododec-4-en-6-yl] (3S)-3-(dimethylamino)pyrrolidine-1-carboxylate] | 3.96 nM | – | – | – | −77.633% | – | 3.29 nM | – | – | –
